Measured values: patent US7241803B2, “Compounds for inhibition of HIV infection by blocking HIV entry” (New York Blood Center, priority 2002, dated 2007)

Legend:
HIV-1IIIB [1] = experiment: time-of-addition assay; assay type: cell-based; conditions: 2.5 μM added 8 hrs post-infection
Method: (§1) Assessment of anti-HIV-1 infectivity. […] Reactions were terminated by addition of 1N H2SO4.
MT-2 cells were incubated with HIV-1IIIB at 37° C. for 0, 1, 2, 3, 4, 6, and 8 hrs, respectively, before addition of the test compounds at 10 μg/ml. AZT (2.5 μM) was used as a control. After culture for another 2 hrs, the cells were washed to remove the free virus and compounds. The supernatants were collected on day 4 post-infection for measurement of p24 production.

[2] = test system: H9/HIV-1IIIB cells cocultured with MT-2 cells; experiment: syncytium-formation assay for screening HIV-1 fusion inhibitors; assay type: cell-based; conditions: single dose 25 μg/ml
From the text: Syncytium-formation assay for screening HIV-1 fusion inhibitors. […] HIV-1 induced syncytium formation was observed under an inverted microscope and scored as “−” (no syncytium was observed), “±” (about 50% syncytia were inhibited), and “+” (no syncytium formation was inhibited). The compounds scored with “−” and “±” were selected for further screening by ELISA for inhibitors against the gp41 six-helix bundle formation.

HIV-1IIIB [3] = experiment: inhibition of HIV-1IIIB replication (p24 production) in MT-2 cells; assay type: cell-based; conditions: concentration up to 80 μg/ml
From the text: as §1

[4] = molecular target: gp41 six-helix bundle formed by N36 and C34 (Human immunodeficiency virus type 1 group M subtype B, UniProt P04578); conditions: for inhibitory activity on gp41 six-helix bundle formation (sandwich ELISA): graded concentrations, up to 80 μg/ml, compound preincubated with N36; for inhibition of six-helix bundle formation between N36 and C34 (screening ELISA): single dose 25 μg/ml
Chain of gp41 six-helix bundle formed by N36 and C34 (P04578 546-581): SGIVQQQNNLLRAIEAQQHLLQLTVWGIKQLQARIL
Method: ELISA for screening for compounds that inhibit the gp41 six-helix bundle formation. A sandwich ELISA as previously described (23) was used to screen for compounds that inhibit the gp41 six-helix bundle formation. Briefly, peptide N36 (2 μM) was pre-incubated with a test compound at the indicated concentrations at 37° C. for 30 min, followed by addition of C34 (2 μM). In the control experiments, N36 was pre-incubated with C34 at 37° C. for 30 min, followed by addition of the test compound. After incubation at 37° C. for 30 min, the mixture was added to wells of a 96-well polystyrene plate (Costar, Corning Inc., Corning, N.Y.) which were precoated with IgG (2 μg/ml) purified from rabbit antisera directed against the N36/C34 mixture. […] Absorbance at 450 nm was measured using an ELISA reader (Ultra 384, Tecan, Research Triangle Park, N.C.). The percent inhibition by the compounds was calculated as previously described (18) and the concentration for 50% inhibition (IC50) was calculated using the software designated Calcusyn (7), kindly provided by Dr. T. C. Chou (Sloan-Kettering Cancer Center, New York, N.Y.).

[5] = test system: HIV-1NL4-3 pseudotyped viruses expressing HIV-1SF162 (R5) Env with U87-T4-CCR5 cells; experiment: virus-cell fusion, luciferase assay; assay type: cell-based; conditions: HIV-1SF162 (R5) Env pseudotyped virus
Method: Inhibition of virus-cell fusion. Inhibition of fusion of HIV-1NL4-3 pseudotyped viruses expressing envelope glycoprotein of the HIV-1HXB2 (X4) and HIV-1SF162 (R5) strains with U87-T4-CXCR4 and U87-T4-CCR5 cells, respectively, was measured as previously described (15). Briefly, 100 μl of U87-T4-CXCR4 and U87-T4-CCR5 cells, respectively, at 1×10^5 cells/ml were added to the wells of a 96-well tissue culture plate and cultured at 37° C. overnight. Fifty μl of a test compound at graded concentrations was mixed with 50 μl of the HIV-1NL4-3-luc viruses pseudotyped with the HIV-1HXB2 and HIV-1SF162 Env, prepared as described previously (15), at a final p24 concentration of 0.5 ng/ml in the presence of Polybrene (10 μg/ml). After incubation at 37° C. for 30 min, the mixtures were added to the cells and incubated at 37° C. overnight. The supernatants were removed and fresh culture medium was added. After incubation at 37° C. for 3 days, the cells were washed twice with PBS and lysed with the lysing reagent included in a luciferase assay kit (Promega, Corp., Madison, Wis.). The cell lysates were transferred to a 96-well flat-bottom luminometer plate (Costar, Corning Inc., Corning, N.Y.) and luciferase substrate (Promega) was added. The luciferase activity was measured immediately on a luminometer (Ultra 384, Tecan). The % inhibition and IC50 values were calculated as described above.

[6] = test system: MT-2 & H9/HIV-1IIIB (clade B, X4); experiment: cell-cell fusion, dye transfer assay; assay type: cell-based; conditions: H9/HIV-1IIIB with MT-2 cells
Method: Inhibition of cell-cell fusion. A dye transfer assay was used for detection of HIV-1 mediated cell fusion as previously described (21, 24, 34). H9/HIV-1IIIB cells were labeled with a fluorescent reagent, Calcein-AM (Molecular Probes, Inc., Eugene, Oreg.) and then incubated with MT-2 cells (ratio=1:5) in 96-well plates at 37° C. for 2 hrs in the presence or absence of compounds tested. The fused and unfused Cacein-labeled HIV-1-infected cells were counted under an inverted fluorescence microscope (Zeiss, Germany) with an eyepiece micrometer disc. The percentage of inhibition of cell fusion and the IC50 values were calculated as previously described (21).

gp120-CD4 binding = molecular target: T1, gp120-CD4 binding (Human immunodeficiency virus type 1 group M subtype B, UniProt P03375); parameters: species or system HIV-1; conditions: 10 μg/ml
T1 construct: purchased Immunodiagnostics, Woburn, Mass; (gp120); Genentech Inc., South San Francisco, Calif; (sCD4)
Method: Inhibition of gp120 binding to CD4. Wells of polystyrene plates was coated with 100 μl of sheep anti-gp120 antibody D7324 (Cliniqa, Fallbrook, Calif.) at 2 μg/ml in carbonate buffer (pH 9.6) at 4° C. overnight and blocked with 1% dry fat-free milk in PBS at 37° C. for 1 h. One hundred microliters of recombinant gp120 molecule (Immunodiagnostics, Woburn, Mass.) at 0.5 μg/ml in PBS was added and incubated at 37° C. for 1 h, followed by three washes with PBS-T. Soluble CD4 (sCD4) at 0.25 μg/ml was added in the presence of a compound (25 μM) and incubated at 37° C. for 1 h. After three washes, rabbit anti-sCD4 IgG (0.25 μg/ml in PBS, 100 μl/well) was added and incubated at 37° C. for 1 h. Binding of rabbit anti-sCD4 IgG was determined by sequential addition of biotinylated goat-anti-rabbit IgG, SA-HRP, and TMB. After the reactions were terminated, absorbance at 450 nm was recorded in an ELISA reader (Tecan).
HIV-1 envelope glycoprotein gp120 was captured by the anti-gp120 antibody coated onto wells of polystyrene plates. […] After extensive washes, CD4 molecule bound to gp120 was quantitated by ELISA using anti-CD4 antibody.

CXCR4 = molecular target: T2, CXCR4 (Homo sapiens, UniProt P61073); experiment: inhibition of anti-CXCR4 antibody 12G5 binding to CXCR4-expressing cells, cell-based ELISA; conditions: 25 μM
T2 construct: expressed in transfected cells; host or cells: U373-MAGI-CXCR4CEM cells
T2 sequence (P61073 whole entry): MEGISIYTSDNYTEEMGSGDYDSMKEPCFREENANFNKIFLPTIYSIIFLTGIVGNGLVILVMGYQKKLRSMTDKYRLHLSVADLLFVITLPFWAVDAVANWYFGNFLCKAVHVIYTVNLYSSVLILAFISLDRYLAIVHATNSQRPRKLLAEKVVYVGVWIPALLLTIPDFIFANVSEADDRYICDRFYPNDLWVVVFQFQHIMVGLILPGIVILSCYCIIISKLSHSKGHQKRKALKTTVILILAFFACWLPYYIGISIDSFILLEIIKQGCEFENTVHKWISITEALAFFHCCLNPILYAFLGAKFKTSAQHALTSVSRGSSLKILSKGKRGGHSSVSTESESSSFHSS
Method: Inhibition of anti-CXCR4 antibody binding to CXCR4-expressing cells. The inhibition of the binding of anti-CXCR4 antibody to CXCR4-expressing cells was determined using a cell-based ELISA as described previously (52). Briefly, U373-MAGI-CXCR4CEM cells (1×10^5/well) which express CXCR4 molecules were cultured in a 96-well plate at 37° C. overnight. The cells were fixed with 5% formaldehyde at room temperature for 15 min and washed with PBS-T. The cells were incubated with anti-CXCR4 mAb 12G5 at 37° C. for 1 h in the presence or absence of compounds tested. Isotype IgG2a was used as a control.

In the case of `Cc1cn([C@H]2C[C@H](N=[N+]=[N-])[C@@H](CO)O2)c(=O)[nH]c1=O` [AZT, reference compound], the “inhibition of HIV-1 replication, time of addition” value (HIV-1IIIB [1]) is reported as “still effective”.
In the case of `Cc1ccc(C)n1-c1cccc(O)c1` [NB-177, reference compound], the “inhibition of HIV-1 mediated syncytium formation” value [2] is reported as “no inhibitory activity”, the “inhibitory activity on HIV-1IIIB replication” value (HIV-1IIIB [3]) is reported as “no inhibitory activity” and the “inhibitory activity on gp41 six-helix bundle formation (sandwich ELISA)” value [4] is reported as “no inhibitory activity”. For the same compound, the “inhibition of six-helix bundle formation between N36 and C34 (screening ELISA)” value [4] was “no inhibitory activity”, the “inhibitory activity on virus-cell fusion” value [5] was “no inhibitory activity” and the “inhibitory activity on cell-cell fusion” value [6] was “no inhibitory activity”.
In the case of `Clc1ccc(-n2cccc2)cc1` [NB-178, reference compound], the “inhibition of HIV-1 mediated syncytium formation” value [2] is reported as “no inhibitory activity”, the “inhibitory activity on HIV-1IIIB replication” value (HIV-1IIIB [3]) is reported as “no inhibitory activity” and the “inhibitory activity on gp41 six-helix bundle formation (sandwich ELISA)” value [4] is reported as “no inhibitory activity”. The “inhibition of six-helix bundle formation between N36 and C34 (screening ELISA)” value [4] was “no inhibitory activity”, the “inhibitory activity on virus-cell fusion” value [5] was “no inhibitory activity” and the “inhibitory activity on cell-cell fusion” value [6] was “no inhibitory activity”.
For `CN1C(=O)[C@@H](c2cc(Cl)c(O)c(Cl)c2)NC(=O)[C@@H]2NC(=O)[C@@H](c3cc(Cl)c(O)c(Cl)c3)NC(=O)[C@H](NC(=O)C(=O)c3cc(Cl)c(O)c(Cl)c3)Cc3c[nH]c4c(cccc34)-c3cc2cc(c3O)Oc2ccc(cc2)C[C@H]1C(=O)N[C@@H](C(=O)O)c1ccc(O)cc1` [chloropeptin, reference compound], the “inhibition of gp120-CD4 binding” value (gp120-CD4 binding) was “markedly inhibited”.
For “[Tyr-5,12, Lys-7]polyphemusin II [Example T22, reference compound]”, the “inhibition of 12G5 binding to U373-MAGI-CXCR4CEM cells” value (CXCR4) was “significantly inhibited”.
